These are literature values, as cited in patent publication US6908953B2, “Polymerizable compositions based on epoxides” (ESPE Dental AG, priority 1998, dated 2005).

For data set [1] the following is noted: in vitro tests, prior-art epoxide monomers.
For data set [2] the following is noted: prior-art epoxide monomers.

Turning to `O=C(CCCCC(=O)OC1CCC2OC2C1)OC1CCC2OC2C1` (stereo not shown) [bis(3,4-epoxycyclohexyl adipate)], the Mutagenic properties result in data set [1] is given as “mutagenic properties”. Moreover, the Cytotoxicity result in data set [2] is given as “highly cytotoxic”.

Regarding `O=C(OCC1CCC2OC2C1)C1CCC2OC2C1` (stereo not shown) [3,4-epoxycyclohexyl-methyl 3,4-epoxycyclohexanecarboxylate], in data set [1], the Mutagenic properties entry is recorded as “mutagenic properties”. Moreover, the Cytotoxicity entry in data set [2] is listed as “highly cytotoxic”.
